Consider 7 compounds from DBAASP.

Some test systems named below: Escherichia coli HB101; Escherichia coli W160-37; Staphylococcus aureus.
Common to all, as to experiment: ≥ marks a high value that may be exact or a test limit, other limits are often not marked, values filed in µg/mL are converted to µM
Assay [1] deals with Aspergillus awamori KCTC 6915.
Assay [2] concerns Aspergillus flavus KCTC 6905.
Assay [3] has as its system Aspergillus fumigatus KCTC 6145.
Assay [4] has as its system Aspergillus parasiticus KCTC 6598.
Assay [5] has as its system Bacillus subtilis KCTC 1918.
The subject of assay [6] is Bacillus subtilis KCTC 1998.
The test system of assay [7] is Candida albicans KCTC 7270.
Assay [8] concerns Escherichia coli ATCC 25922.
Assay [9] deals with Listeria monocytogenes ATCC 19115.
The test system of assay [10] is Listeria monocytogenes KCTC 3710.
The subject of assay [11] is Proteus vulgaris KCTC 2433.
For assay [12], the system named is Pseudomonas aeruginosa ATCC 15692.
Assay [13] relates to Pseudomonas aeruginosa KCTC 1637.
In assay [14] the test system is Salmonella typhimurium KCTC 1926.
The test system of assay [15] is Staphylococcus aureus ATCC 25923.
Assay [16] has as its system Staphylococcus epidermidis ATCC 12228.
The test system of assay [17] is Staphylococcus epidermidis KCTC 3096.
In assay [18] the test system is Trichosporon beigelii KCTC 7707.
For assay [19], the system named is Corynebacterium glutamicum ATCC 13032.
For assay [20], the system named is Pseudomonas aeruginosa ATCC 27853.
The test system of assay [21] is Staphylococcus aureus ATCC 9144.
In assay [22] the test system is Clavibacter michiganensis subsp. michiganensis DSM 46294.
The test system of assay [23] is Pectobacterium carotovorum subsp. carotovorum DSM 30168.
Assay [24] concerns Pseudomonas corrugata DSM 7228.
Assay [25] concerns Pseudomonas syringae pv. syringae DSM 10604.
For assay [26], the system named is Pseudomonas syringae pv. tomato DC3000.
For assay [27], the system named is Staphylococcus aureus 90857.
The test system of assay [28] is Xanthomonas vesicatoria DSM 50861.
The subject of assay [29] is Escherichia coli KCTC 2223.
Assay [30] concerns Micrococcus luteus ATCC 10240.
The subject of assay [31] is Staphylococcus aureus ATCC 15752.

Converted amounts (≈) assume the structure as drawn. “And” between values parts separate entries of the source, which are not always exact repeats. Equal values may be shown once. Some results are limits rather than exact numbers.

One may read the MIC as the lowest concentration that inhibits growth of the organism. Higher therefore signals a less susceptible organism. For the compound `CC[C@H](C)[C@H](NC(=O)[C@H](CCCCN)NC(=O)[C@H](CCCCN)NC(=O)[C@H](C)NC(=O)[C@H](CC(C)C)NC(=O)[C@H](CCCCN)NC(=O)[C@H](CCCCN)NC(=O)[C@H](CC(C)C)NC(=O)[C@H](CCCN=C(N)N)NC(=O)[C@H](CCCCN)NC(=O)[C@H](C)N)C(=O)N[C@@H](Cc1c[nH]c2ccccc12)C(=O)N[C@@H](CC(N)=O)C(=O)N[C@@H](Cc1c[nH]c2ccccc12)C(=O)N[C@@H](CCCCN)C(N)=O` [AKRLKKLAKKIWNWK], the minimum inhibitory concentration (MIC) is 16 µM (≈ 30.6 µg/mL) in [1]; ≥ 32 µM in assay [2]; 4 µM (≈ 7.64 µg/mL) in assay [3]; 8 µM (≈ 15.3 µg/mL) in assay [4]; 4 µM (≈ 7.64 µg/mL) in [5]; 4 µM (≈ 7.64 µg/mL) in assay [6]. The minimum inhibitory concentration (MIC) turned out to be 16 µM (≈ 30.6 µg/mL) in assay [7]; 22.6 µM (≈ 43.2 µg/mL) in assay [8]; 2 µM (≈ 3.82 µg/mL) in assay [9]; 2 µM (≈ 3.82 µg/mL) in assay [10]; 4 µM (≈ 7.64 µg/mL) in [11]; 2 µM (≈ 3.82 µg/mL) in [12]. Moreover, the MIC in assay [13] is 2 µM (≈ 3.82 µg/mL); in assay [14], 2 µM (≈ 3.82 µg/mL); in assay [15] it was 5.66 µM and 16 µM; in [16] it was 16 µM (≈ 30.6 µg/mL); in [17], 16 µM (≈ 30.6 µg/mL); in [18], ≥ 32 µM.
On to `CC[C@H](C)[C@H](NC(=O)[C@@H]1CCCN1C(=O)[C@H](CCCCN)NC(=O)[C@@H]1CCCN1C(=O)[C@H](CCCN=C(N)N)NC(=O)CNC(=O)[C@@H]1CCCN1C(=O)[C@H](Cc1ccccc1)NC(=O)[C@@H]1CCCN1C(=O)[C@H](CCCN=C(N)N)NC(=O)[C@@H]1CCCN1C(=O)[C@H](CCCN=C(N)N)NC(=O)CN)C(=O)N[C@@H](Cc1ccccc1)C(=O)N[C@@H](CCCN=C(N)N)C(=O)N1CCC[C@H]1C(=O)N[C@@H](CCCN=C(N)N)C(=O)O` [GRPRPFPGRPKPIFRPR], for which the minimum inhibitory concentration (MIC) in assay [19] was 3.1 µM (≈ 6.3 µg/mL); in [8] it was 70.7 µM (≈ 144 µg/mL); in the assay on Escherichia coli HB101 it was 25 µM (≈ 50.8 µg/mL); in assay [20], 70.7 µM (≈ 144 µg/mL); in assay [21], ≥ 100 µM.
In the case of `CC[C@H](C)[C@H](NC(=O)[C@H](CC(C)C)NC(=O)[C@H](CCCCN)NC(=O)[C@H](CCCCN)NC(=O)[C@H](CC(C)C)NC(=O)[C@@H](NC(=O)[C@H](CCCCN)NC(=O)[C@H](CCCCN)NC(=O)[C@@H](NC(=O)[C@H](Cc1ccccc1)NC(=O)[C@H](CCCN=C(N)N)NC(=O)[C@@H](N)CC(C)C)[C@@H](C)CC)[C@@H](C)CC)C(N)=O` [LRFIKKILKKLI], the minimal inhibitory concentration (MIC) came to 0.165 µM (≈ 0.25 µg/mL) in [22]; 1.65 µM (≈ 2.5 µg/mL) in assay [23]; 1.65 µM (≈ 2.5 µg/mL) in [24]; 0.165 µM (≈ 0.25 µg/mL) in assay [25]; 0.661 µM (≈ 0.999 µg/mL) in assay [26]; 0.625 µM (≈ 0.945 µg/mL) in assay [27]. In assay [28], this compound had a minimum inhibitory concentration (MIC) of 0.0661 µM (≈ 0.0999 µg/mL).
For `CC[C@H](C)[C@H](NC(=O)[C@H](CCCCN)NC(=O)[C@@H](NC(=O)[C@@H](N)CC(N)=O)[C@@H](C)CC)C(=O)N[C@@H](CO)C(=O)NCC(=O)N[C@@H](CCCCN)C(=O)N[C@@H](Cc1c[nH]c2ccccc12)C(=O)N[C@@H](CCCCN)C(=O)N[C@@H](C)C(=O)N[C@@H](CCC(N)=O)C(=O)N[C@@H](CCCCN)C(=O)N[C@@H](CCCN=C(N)N)C(=O)N[C@@H](Cc1ccccc1)C(=O)N[C@@H](CC(C)C)C(=O)N[C@@H](CCCCN)C(=O)O` [NIKISGKWKAQKRFLK], the MIC in assay [29], in assay [30] and in assay [31] was ≥ 32 µM in each case.
For `CC[C@H](C)[C@H](NC(=O)[C@H](Cc1c[nH]c2ccccc12)NC(=O)[C@H](CCCCN)NC(=O)[C@H](CO)NC(=O)[C@H](CC(C)C)NC(=O)[C@H](Cc1ccccc1)NC(=O)[C@H](CCCCN)NC(=O)[C@H](CC(C)C)NC(=O)[C@H](CCCCN)NC(=O)[C@@H]1CCCN1)C(=O)NCC(=O)O` [PKLKFLSKWIG], the minimum inhibitory concentration (MIC) in the assay with Escherichia coli W160-37 was ≥ 154 µM; in the assay with Staphylococcus aureus, 154 µM (≈ 203 µg/mL).
Turning to `CC[C@H](C)[C@H](NC(=O)[C@@H]1CCCN1C(=O)[C@H](CCCCN)NC(=O)[C@@H]1CCCN1C(=O)[C@H](CCCN=C(N)N)NC(=O)CNC(=O)[C@@H]1CCCN1C(=O)[C@H](Cc1ccccc1)NC(=O)[C@@H]1CCCN1C(=O)[C@H](CCCN=C(N)N)NC(=O)[C@@H]1CCCN1)C(=O)N[C@@H](Cc1ccccc1)C(=O)N[C@@H](CCCN=C(N)N)C(=O)N1CCC[C@H]1C(=O)N[C@@H](CCCN=C(N)N)C(=O)O` [PRPFPGRPKPIFRPR], the MIC in assay [19] was 12.5 µM (≈ 22.7 µg/mL); in assay [8], > 100 µM; against Escherichia coli HB101 it was ≥ 100 µM; in assay [20], > 100 µM; in assay [21], ≥ 100 µM.
Take `CC(C)C[C@H](NC(=O)[C@H](CCCCN)NC(=O)[C@H](CCCCN)NC(=O)[C@H](CCCCN)NC(=O)[C@@H](N)CCCN=C(N)N)C(=O)N[C@@H](CCCCN)C(=O)N[C@H](C(=O)N[C@H](C(=O)N[C@@H](CCCCN)C(=O)N[C@@H](CCCN=C(N)N)C(=O)N[C@@H](CC(C)C)C(=O)N[C@H](C(N)=O)C(C)C)C(C)C)C(C)C` [RKKKLKVVKRLV]: the minimum inhibitory concentration (MIC) was 6.69 µM (≈ 9.99 µg/mL) in assay [22]; 6.69 µM (≈ 9.99 µg/mL) in [23]; 6.69 µM (≈ 9.99 µg/mL) in assay [24]; 3.34 µM (≈ 5 µg/mL) in assay [25]; 0.669 µM (≈ 0.999 µg/mL) in assay [26]; ≥ 62.5 µM in assay [27]. The compound also gave a minimum inhibitory concentration (MIC) in assay [28] of 6.69 µM (≈ 9.99 µg/mL).
